From patent US6713265B1 (Synaptic Pharmaceutical Corporation, priority 1999, dated 2004)
Like-named read-outs stand apart in the source and are kept apart here. One block for each compound: values may come before it.

What was measured:
human Y4 receptor = target: T1, human Y4 receptor (Homo sapiens, UniProt P50391); experiment: ^125I-PYY binding to membranes, cloned human Y4 receptor
T1 construct: expressed in transfected cells; host or cells: COS-7 (transient)

human Y2 receptor = target: T2, human Y2 receptor (Homo sapiens, UniProt P49146); experiment: ^125I-PYY binding to membranes, cloned human Y2 receptor
T2 construct: expressed in transfected cells; host or cells: COS-7 (transient)
T2 sequence (P49146 1-381): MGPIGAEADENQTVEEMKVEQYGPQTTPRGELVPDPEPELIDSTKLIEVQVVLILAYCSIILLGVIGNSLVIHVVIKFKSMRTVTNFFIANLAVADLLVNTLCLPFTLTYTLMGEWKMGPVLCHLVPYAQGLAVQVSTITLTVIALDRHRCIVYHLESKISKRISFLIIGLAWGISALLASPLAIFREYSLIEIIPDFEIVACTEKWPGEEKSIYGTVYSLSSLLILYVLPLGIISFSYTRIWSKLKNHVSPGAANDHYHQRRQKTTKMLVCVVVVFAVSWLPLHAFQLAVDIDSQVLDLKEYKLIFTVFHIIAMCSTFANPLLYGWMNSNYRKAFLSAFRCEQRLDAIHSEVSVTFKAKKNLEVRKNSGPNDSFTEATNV

rat Y2 receptor [1] = target: T3, rat Y2 receptor (Rattus norvegicus, UniProt Q9ERC0); experiment: Antagonism of NPY- or PP-induced activation of rat Y2 receptors; assay type: cell-based; settings: concentrations up to 1 μM
human Y5 receptor [2] = experiment: Radioligand binding to membranes of cells expressing cloned human Y5 receptor; settings: BIBP 3226 at cloned human Y-type receptors
canine Y5 receptor = experiment: Porcine ^125I-PYY binding to membranes of COS-7 cells transfected with canine Y5 receptor; settings: COS-7 transient
rat Y5 receptor [3] = experiment: Radioimmunoassay of cAMP, 293 cells stably expressing rat Y5 receptor; assay type: cell-based; settings: concentrations up to 1 μM
rat Y4 receptor = target: T4, rat Y4 receptor (Rattus norvegicus, UniProt Q63447); experiment: ^125I-PYY binding to membranes, cloned rat Y4 receptor; settings: BIBP 3226 at cloned rat Y-type receptors
T4 construct: expressed in transfected cells; host or cells: COS-7 (transient)

rat Y2 receptor [4] = target: T3, rat Y2 receptor; experiment: ^125I-PYY binding to membranes, cloned rat Y2 receptor; design: expressed in transfected cells; host or cells: COS-7 (transient); settings: BIBP 3226 at cloned rat Y-type receptors
rat Y5 receptor [5] = target: T5, rat Y5 receptor (Rattus norvegicus, UniProt Q63634); experiment: Radioligand binding to membranes of cells expressing cloned rat Y5 receptor; settings: BIBP 3226 at cloned rat Y-type receptors
T5 construct: expressed in transfected cells; host or cells: COS-7 (transient, DEAE-dextran)

5HT1E = 5HT1E (Homo sapiens, UniProt P28566); experiment: Binding at cloned human 5HT1E receptor; settings: read-out: pKi 5HT1E (converted)
Source text: (§1) The cell line for the 5HT1Dα receptor, designated as Ltk-8-30-84, was deposited on Apr. 17, 1990, and accorded ATCC Accession No. CRL 10421. The cell for the 5HT1Dβ receptor, designated as Ltk-11, was deposited on Apr. 17, 1990, and accorded ATCC Accession No. CRL 10422. The cell line for the 5HT1E receptor, designated 5 HT1E-7, was deposited on Nov. 6, 1991, and accorded ATCC Accession No. CRL 10913. The cell line for the ^5HT1F receptor, designated L-5-HT1F, was deposited on Dec. 27, 1991, and accorded ATCC Accession No. ATCC 10957. Membrane preparations comprising these receptors were prepared as described below, and suspended in 50 mM Tris-HCl buffer (pH 7.4 at 37° C.) containing 10 mM MgCl2, 0.2 mM EDTA, 10 μM pargyline, and 0.1% ascorbate. The binding of compounds was determined in competition binding assays by incubation for 30 minutes at 37° C. in the presence of 5 nM [^3H]serotonin.

food intake = experiment: Food intake in food-deprived rats; assay type: in vivo, rat; settings: Rattus norvegicus, ip, 2 h; 30 mg/kg i.p., after 24h food deprivation, two hours; read-out: Two-hour food intake of food-deprived rats, percentage of intake compared to control rats, Mean
5HT1F = target: T6, 5HT1F (Homo sapiens, UniProt P30939); experiment: Binding at cloned human 5HT1F receptor; settings: read-out: pKi 5HT1F (converted)
T6 construct: expressed in transfected cells; host or cells: LM(tk-), line L-5-HT1F (ATCC 10957)
Source text: as §1

human Y5 receptor [6] = target: T7, human Y5 receptor (Homo sapiens, UniProt Q15761); experiment: Radioimmunoassay of cAMP, cells stably expressing human Y5 receptor; assay type: cell-based; design: Ki Values, Human Y5; apparent Kd; pKd; Ki Values, Human Y5 (LM(tk-; The isolated clone (CG-19) turned out to contain a full length cDNA; The longest open reading frame encodes a 455 amino acid protein; settings: block of NPY-induced inhibition of cAMP accumulation
T7 sequence (Q15761 1-445): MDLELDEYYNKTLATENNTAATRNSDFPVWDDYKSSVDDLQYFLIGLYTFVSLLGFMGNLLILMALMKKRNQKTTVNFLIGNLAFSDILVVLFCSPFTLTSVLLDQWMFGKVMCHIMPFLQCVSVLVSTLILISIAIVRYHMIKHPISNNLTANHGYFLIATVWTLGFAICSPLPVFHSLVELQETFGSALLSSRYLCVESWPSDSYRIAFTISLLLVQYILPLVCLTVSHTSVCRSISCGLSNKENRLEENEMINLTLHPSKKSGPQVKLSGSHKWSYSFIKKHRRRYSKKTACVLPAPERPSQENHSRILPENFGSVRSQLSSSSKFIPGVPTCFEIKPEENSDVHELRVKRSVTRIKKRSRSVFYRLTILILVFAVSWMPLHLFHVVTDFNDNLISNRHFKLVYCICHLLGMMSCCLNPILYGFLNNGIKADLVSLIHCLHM

human Y1 receptor = target: T8, human Y1 receptor (Homo sapiens, UniProt P25929); experiment: ^125I-PYY binding to membranes, cloned human Y1 receptor
T8 construct: expressed in transfected cells; host or cells: COS-7 (transient)
T8 sequence (P25929 1-384): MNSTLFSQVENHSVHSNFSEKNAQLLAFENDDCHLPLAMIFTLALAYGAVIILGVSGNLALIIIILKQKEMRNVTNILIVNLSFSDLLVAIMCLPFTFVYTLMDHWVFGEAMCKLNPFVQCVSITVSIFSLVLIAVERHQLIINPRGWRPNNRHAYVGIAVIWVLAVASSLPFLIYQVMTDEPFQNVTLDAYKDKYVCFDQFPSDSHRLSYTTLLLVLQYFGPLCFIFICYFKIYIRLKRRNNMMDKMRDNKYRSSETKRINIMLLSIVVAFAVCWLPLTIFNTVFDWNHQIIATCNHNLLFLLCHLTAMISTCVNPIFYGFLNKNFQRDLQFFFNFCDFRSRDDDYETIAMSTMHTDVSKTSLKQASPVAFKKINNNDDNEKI

human Y5 receptor [7] = target: T7, human Y5 receptor; experiment: Radioligand binding to membranes of cells expressing cloned human Y5 receptor; design: Ki Values, Human Y5; apparent Kd; pKd; Ki Values, Human Y5 (LM(tk-; The isolated clone (CG-19) turned out to contain a full length cDNA; The longest open reading frame encodes a 455 amino acid protein; settings: Table 14; stably transfected LM(tk-) cells

T1 sequence (P50391 whole entry): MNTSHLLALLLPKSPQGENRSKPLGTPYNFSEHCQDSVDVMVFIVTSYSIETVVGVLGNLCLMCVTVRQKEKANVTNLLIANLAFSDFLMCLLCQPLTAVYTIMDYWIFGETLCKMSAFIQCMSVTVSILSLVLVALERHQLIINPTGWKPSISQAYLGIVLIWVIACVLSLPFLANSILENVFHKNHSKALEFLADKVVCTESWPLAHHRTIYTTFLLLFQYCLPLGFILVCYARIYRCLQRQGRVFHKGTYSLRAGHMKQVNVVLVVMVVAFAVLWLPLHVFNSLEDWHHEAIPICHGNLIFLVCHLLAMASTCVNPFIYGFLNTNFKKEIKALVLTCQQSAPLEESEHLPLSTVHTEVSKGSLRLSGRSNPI
T3 sequence (Q9ERC0 1-381): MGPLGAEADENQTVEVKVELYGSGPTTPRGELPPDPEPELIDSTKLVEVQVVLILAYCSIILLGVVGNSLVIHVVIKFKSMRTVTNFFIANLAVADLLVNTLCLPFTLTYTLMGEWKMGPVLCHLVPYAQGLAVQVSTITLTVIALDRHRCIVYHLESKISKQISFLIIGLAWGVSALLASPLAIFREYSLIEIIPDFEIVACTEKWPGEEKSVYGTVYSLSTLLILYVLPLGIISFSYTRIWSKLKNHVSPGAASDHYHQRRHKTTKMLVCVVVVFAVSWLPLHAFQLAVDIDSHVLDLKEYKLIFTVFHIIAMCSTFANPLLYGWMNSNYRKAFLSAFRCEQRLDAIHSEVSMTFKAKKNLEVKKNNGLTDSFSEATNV
T4 sequence (Q63447 whole entry): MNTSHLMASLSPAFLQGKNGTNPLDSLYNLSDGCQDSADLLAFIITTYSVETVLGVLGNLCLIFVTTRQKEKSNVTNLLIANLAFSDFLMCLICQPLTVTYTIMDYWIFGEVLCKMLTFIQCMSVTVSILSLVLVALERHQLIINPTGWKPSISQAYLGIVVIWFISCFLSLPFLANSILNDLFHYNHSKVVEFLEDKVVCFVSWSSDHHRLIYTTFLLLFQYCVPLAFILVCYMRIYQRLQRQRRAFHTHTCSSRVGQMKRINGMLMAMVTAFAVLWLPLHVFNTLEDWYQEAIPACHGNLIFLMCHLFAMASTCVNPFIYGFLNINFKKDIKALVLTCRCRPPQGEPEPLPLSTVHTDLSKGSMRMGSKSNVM
Sequence of 5HT1E (P28566 whole entry): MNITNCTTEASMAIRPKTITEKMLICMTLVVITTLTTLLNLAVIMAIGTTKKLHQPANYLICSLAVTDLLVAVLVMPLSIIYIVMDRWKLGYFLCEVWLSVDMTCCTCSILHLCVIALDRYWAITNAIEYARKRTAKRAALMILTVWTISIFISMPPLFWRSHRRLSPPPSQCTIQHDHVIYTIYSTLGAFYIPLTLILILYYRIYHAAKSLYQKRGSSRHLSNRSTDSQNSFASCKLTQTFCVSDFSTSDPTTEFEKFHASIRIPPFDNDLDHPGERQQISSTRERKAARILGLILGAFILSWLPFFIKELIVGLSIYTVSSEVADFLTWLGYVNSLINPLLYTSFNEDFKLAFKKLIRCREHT
T5 sequence (Q63634 whole entry): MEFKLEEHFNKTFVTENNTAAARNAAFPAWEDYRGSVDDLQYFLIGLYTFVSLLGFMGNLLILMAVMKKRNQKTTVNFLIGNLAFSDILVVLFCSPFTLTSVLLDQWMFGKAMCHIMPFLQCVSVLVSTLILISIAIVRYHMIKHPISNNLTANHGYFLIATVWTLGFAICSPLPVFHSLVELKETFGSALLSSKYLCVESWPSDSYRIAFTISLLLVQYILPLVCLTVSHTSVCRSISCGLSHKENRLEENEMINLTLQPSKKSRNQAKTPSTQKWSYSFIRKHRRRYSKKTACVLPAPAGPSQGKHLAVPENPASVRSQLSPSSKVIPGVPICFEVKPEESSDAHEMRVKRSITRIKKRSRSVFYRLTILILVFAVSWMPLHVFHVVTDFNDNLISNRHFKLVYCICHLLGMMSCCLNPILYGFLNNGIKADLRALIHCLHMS
T6 sequence (P30939 whole entry): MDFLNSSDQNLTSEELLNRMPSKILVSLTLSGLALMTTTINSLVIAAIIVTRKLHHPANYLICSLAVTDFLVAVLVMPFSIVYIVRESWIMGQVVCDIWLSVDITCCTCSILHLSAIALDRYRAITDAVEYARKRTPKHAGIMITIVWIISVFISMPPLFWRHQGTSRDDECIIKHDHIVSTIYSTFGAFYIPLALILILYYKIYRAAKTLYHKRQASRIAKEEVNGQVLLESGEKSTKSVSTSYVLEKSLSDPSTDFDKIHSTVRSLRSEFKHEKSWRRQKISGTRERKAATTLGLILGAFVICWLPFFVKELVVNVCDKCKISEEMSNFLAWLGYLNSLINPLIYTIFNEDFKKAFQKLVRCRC

Ki (human Y4 receptor; BIBP 3226 at cloned human Y-type receptors, read-out: Ki, human Y4 receptor): 8 µM
Ki (human Y2 receptor; BIBP 3226 at cloned human Y-type receptors, read-out: Ki, human Y2 receptor): 6.9 µM
antagonism of NPY- or PP-induced activation of rat Y2 receptors (rat Y2 receptor [1]): no evidence for antagonism
Ki (rat Y4 receptor): 0.42 µM
Ki (rat Y2 receptor [4]): 66 µM
Ki (rat Y5 receptor [5]): 25 µM
SMILES: NC(N)=NCCC[C@@H](NC(=O)C(c1ccccc1)c1ccccc1)C(=O)NCc1ccc(O)cc1 [BIBP 3226]
Ki (human Y5 receptor [2]): 49 µM
Ki (canine Y5 receptor): 17 µM
antagonism of NPY- or PP-induced activation of rat Y5 receptors (rat Y5 receptor [3]): no evidence for antagonism

SMILES: O=S(=O)(NC[C@H]1CC[C@H](CNC(CO)Cc2ccc(Cl)cc2)CC1)c1cccc2ccccc12 (stereo partly drawn) [Compound 25, Naphthalene-1-sulfonic Acid trans-(4-{[2-(4-Chlorophenyl)-1-hydroxymethyl-ethylamino]-methyl}-cyclohexylmethyl)-amide]
Ki (5HT1E): ≥ 5.01 µM
Ki (human Y4 receptor; read-out: Binding Affinity Ki vs. ^125I-PYY, Human Receptor Y4, Table 14, stably transfected LM(tk-) cells): 13.1 µM
Ki (human Y2 receptor; read-out: Binding Affinity Ki vs. ^125I-PYY, Human Receptor Y2, Table 14, stably transfected 293 cells (compound 1 also COS-7)): 0.851 µM
response vs control in vivo at 30 mg/kg (food intake): 32%
Ki (5HT1F): ≥ 5.01 µM

Ki (human Y4 receptor; Table 14, stably transfected LM(tk-) cells): > 100 µM
Ki (human Y2 receptor): > 75 µM
Y5 receptor antagonist activity (human Y5 receptor [6]): Y5 receptor antagonist
Ki (human Y1 receptor): > 100 µM
Ki (human Y5 receptor [7]): 19 µM
SMILES: NCC(Cc1ccccc1)Nc1cccc2ccccc12 (stereo not shown) [Compound 28]
